According to patent US11339130B1 (Blade Therapeutics, Inc., priority 2016, dated 2022):
Where a name gives a salt, the structure may show the parent alone.

Experiments:
Human Calpain 1/NS1 = biological target: T1, Human Calpain 1/NS1 (Homo sapiens, UniProt P07384); experiment: Calpain inhibition continuous fluorescence (FRET) assay, Human Calpain 1/NS1; format: biochemical; settings: read-out: Human Calpain 1/NS1 IC50
T1 sequence (P07384 1-714): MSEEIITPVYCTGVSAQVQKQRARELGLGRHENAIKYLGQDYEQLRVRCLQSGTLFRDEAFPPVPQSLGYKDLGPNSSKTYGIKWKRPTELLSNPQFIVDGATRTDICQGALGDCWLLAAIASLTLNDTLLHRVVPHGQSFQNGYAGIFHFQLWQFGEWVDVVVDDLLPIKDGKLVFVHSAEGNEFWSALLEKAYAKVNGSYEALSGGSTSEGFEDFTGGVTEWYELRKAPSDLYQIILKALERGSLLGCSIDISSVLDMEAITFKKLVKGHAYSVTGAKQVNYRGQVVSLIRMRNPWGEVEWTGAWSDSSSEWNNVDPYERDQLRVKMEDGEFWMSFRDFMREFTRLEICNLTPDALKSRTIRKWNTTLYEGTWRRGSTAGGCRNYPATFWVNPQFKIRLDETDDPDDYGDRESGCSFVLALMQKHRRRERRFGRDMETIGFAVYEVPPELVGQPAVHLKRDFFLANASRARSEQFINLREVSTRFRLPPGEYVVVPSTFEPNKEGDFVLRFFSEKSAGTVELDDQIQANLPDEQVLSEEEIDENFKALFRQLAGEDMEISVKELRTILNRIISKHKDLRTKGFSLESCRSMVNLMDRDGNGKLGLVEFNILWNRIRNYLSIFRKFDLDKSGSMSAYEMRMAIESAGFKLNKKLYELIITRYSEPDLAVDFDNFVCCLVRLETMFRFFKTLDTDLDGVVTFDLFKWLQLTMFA
T1 sequence (P04632 1-268 partner): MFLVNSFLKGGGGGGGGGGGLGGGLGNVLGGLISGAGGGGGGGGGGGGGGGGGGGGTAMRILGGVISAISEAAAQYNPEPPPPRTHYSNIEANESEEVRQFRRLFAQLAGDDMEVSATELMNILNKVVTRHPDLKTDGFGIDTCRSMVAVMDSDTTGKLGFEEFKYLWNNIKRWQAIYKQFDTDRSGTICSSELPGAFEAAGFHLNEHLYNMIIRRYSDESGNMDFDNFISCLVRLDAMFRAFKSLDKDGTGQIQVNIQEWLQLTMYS
Procedure, shortened: (§1)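 Inhibitors were preincubated with calpain in 50 mM Tris pH 7.5, 100 mM NaCl, 1 mM DTT at 25C. Reactions were started with 5-FAM/QXL 520 FRET peptide substrate plus CaCl2 and read at 490/520 nm for 10 min. IC50s came from 4-parameter fits of slope rates (1-5 min).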

[1] = system: Calpain activity in SH-SY5Y cells (SBDP-150); experiment: SH-SY5Y Spectrin western blot assay (SBDP-150 breakdown product, A23187-induced); format: cell-based; settings: Homo sapiens; SH-SY5Y cells, A23187-induced SBDP-150, western blot; read-out: SH-SY5Y Spectrin IC50
Human Calpain 9/NS1 = biological target: T2, Human Calpain 9/NS1 (Homo sapiens, UniProt O14815); experiment: Calpain inhibition continuous fluorescence (FRET) assay, Human Calpain 9/NS1; format: biochemical; settings: read-out: Human Calpain 9/NS1 IC50
T2 sequence (O14815 1-690): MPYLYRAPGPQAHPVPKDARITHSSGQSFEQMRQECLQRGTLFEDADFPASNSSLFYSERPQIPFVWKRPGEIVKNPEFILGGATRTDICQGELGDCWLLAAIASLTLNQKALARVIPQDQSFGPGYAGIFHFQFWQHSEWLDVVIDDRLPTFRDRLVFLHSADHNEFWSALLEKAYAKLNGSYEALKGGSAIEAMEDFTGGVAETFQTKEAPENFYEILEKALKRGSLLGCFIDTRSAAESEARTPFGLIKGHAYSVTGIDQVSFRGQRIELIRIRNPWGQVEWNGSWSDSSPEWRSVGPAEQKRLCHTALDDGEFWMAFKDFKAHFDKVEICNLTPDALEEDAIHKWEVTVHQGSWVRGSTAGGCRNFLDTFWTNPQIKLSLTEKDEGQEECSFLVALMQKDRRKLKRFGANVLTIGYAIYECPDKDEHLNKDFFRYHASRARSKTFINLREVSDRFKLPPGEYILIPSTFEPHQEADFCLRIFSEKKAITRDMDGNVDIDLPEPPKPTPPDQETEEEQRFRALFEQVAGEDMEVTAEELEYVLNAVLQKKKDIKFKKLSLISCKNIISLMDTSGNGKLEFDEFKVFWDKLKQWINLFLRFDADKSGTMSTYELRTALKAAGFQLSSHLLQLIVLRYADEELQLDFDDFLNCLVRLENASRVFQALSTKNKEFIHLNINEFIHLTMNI
T2 sequence (P04632 1-268 partner): T1 sequence (P04632 1-268 partner)
Procedure, shortened: as §1

Human Calpain 2/NS1 = biological target: T3, Human Calpain 2/NS1 (Homo sapiens, UniProt P17655); experiment: Calpain inhibition continuous fluorescence (FRET) assay, Human Calpain 2/NS1; format: biochemical; settings: read-out: Human Calpain 2/NS1 IC50
T3 sequence (P17655 1-700): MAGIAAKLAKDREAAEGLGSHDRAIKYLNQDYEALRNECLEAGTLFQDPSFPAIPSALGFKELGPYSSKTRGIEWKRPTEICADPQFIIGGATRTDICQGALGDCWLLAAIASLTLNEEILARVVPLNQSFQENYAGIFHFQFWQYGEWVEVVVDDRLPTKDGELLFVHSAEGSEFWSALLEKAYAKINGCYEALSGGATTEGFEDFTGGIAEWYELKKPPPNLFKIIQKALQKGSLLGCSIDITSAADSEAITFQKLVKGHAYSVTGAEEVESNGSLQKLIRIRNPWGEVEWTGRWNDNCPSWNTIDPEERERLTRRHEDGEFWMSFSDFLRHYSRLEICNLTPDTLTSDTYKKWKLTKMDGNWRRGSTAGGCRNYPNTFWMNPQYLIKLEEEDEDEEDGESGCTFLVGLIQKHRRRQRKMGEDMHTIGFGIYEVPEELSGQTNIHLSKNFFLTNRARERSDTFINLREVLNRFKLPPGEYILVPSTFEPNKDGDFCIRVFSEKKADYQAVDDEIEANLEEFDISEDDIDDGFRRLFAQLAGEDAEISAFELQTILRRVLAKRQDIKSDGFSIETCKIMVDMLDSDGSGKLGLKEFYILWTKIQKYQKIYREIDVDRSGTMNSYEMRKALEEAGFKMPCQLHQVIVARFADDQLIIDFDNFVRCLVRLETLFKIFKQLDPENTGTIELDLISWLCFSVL
T3 sequence (P04632 1-268 partner): T1 sequence (P04632 1-268 partner)
Procedure, shortened: as §1

[2] = system: Calpain activity in SH-SY5Y cells; experiment: SH-SY5Y + AMC fluorescence assay (Suc-LLVY-AMC substrate); format: cell-based; settings: read-out: SH-SY5Y + AMC IC50

| Compound | IC50 (Human Calpain 1/NS1) | IC50 [1] | IC50 (Human Calpain 9/NS1) | IC50 (Human Calpain 2/NS1) | IC50 [2] |
| --- | --- | --- | --- | --- | --- |
| Cc1occ(C(=O)N[C@@H](Cc2ccccc2)C(=O)C(N)=O)c1-c1ccccc1 [Compound 430, (S)—N-(4-amino-3,4-dioxo-1-phenylbutan-2-yl)-5-methyl-4-phenylfuran-3-carboxamide] | < 3 µM | < 10 µM | < 3 µM | < 3 µM | < 10 µM |
| Cc1cc(C(=O)NC(Cc2ccccc2)C(=O)C(N)=O)n(-c2ccnc(C(C)C)n2)n1 (stereo not shown) [Compound 431, N-(4-amino-3,4-dioxo-1-phenylbutan-2-yl)-1-(2-isopropylpyrimidin-4-yl)-3-methyl-1H-pyrazole-5-carboxamide] | < 3 µM | > 25 µM | < 3 µM | < 3 µM | < 10 µM |
| C#Cc1nccc(-n2nc(C)cc2C(=O)NC(Cc2ccccc2)C(=O)C(N)=O)n1 (stereo not shown) [Compound 432, N-(4-amino-3,4-dioxo-1-phenylbutan-2-yl)-1-(2-ethynylpyrimidin-4-yl)-3-methyl-1H-pyrazole-5-carboxamide] | < 3 µM | < 10 µM | < 3 µM | < 3 µM | < 10 µM |
| C#Cc1nccc(-n2nc(C)cc2C(=O)N[C@@H](Cc2ccccc2)C(=O)CF)n1 [Compound 433, (S)-1-(2-ethynylpyrimidin-4-yl)-N-(4-fluoro-3-oxo-1-phenylbutan-2-yl)-3-methyl-1H-pyrazole-5-carboxamide] | 3 to 10 µM | 10 to 25 µM | > 10 µM | 3 to 10 µM | > 25 µM |
| Cc1cc(C(=O)N[C@@H](Cc2ccccc2)C(=O)C(N)=O)nn1-c1ccnc(Cl)n1 [Compound 435, (S)—N-(4-amino-3,4-dioxo-1-phenylbutan-2-yl)-1-(2-chloropyrimidin-4-yl)-5-methyl-1H-pyrazole-3-carboxamide] | > 10 µM | > 25 µM | 3 to 10 µM | 3 to 10 µM | < 10 µM |
| COc1nccc(-n2nc(C)cc2C(=O)NC(Cc2ccccc2)C(=O)C(N)=O)n1 (stereo not shown) [Compound 436, N-(4-amino-3,4-dioxo-1-phenylbutan-2-yl)-1-(2-methoxypyrimidin-4-yl)-3-methyl-1H-pyrazole-5-carboxamide] | < 3 µM | > 25 µM | < 3 µM | < 3 µM | < 10 µM |
| Cc1cc(C(=O)NC(Cc2ccccc2)C(=O)C(N)=O)n(-c2ccnc(C#N)n2)n1 (stereo not shown) [Compound 437, N-(4-amino-3,4-dioxo-1-phenylbutan-2-yl)-1-(2-cyanopyrimidin-4-yl)-3-methyl-1H-pyrazole-5-carboxamide] | < 3 µM | > 25 µM | < 3 µM | < 3 µM | 10 to 25 µM |

The remaining lines, values ahead:

| IC50 (Human Calpain 1/NS1) | IC50 [1] | IC50 (Human Calpain 9/NS1) | IC50 (Human Calpain 2/NS1) | IC50 [2] | Compound |
| --- | --- | --- | --- | --- | --- |
| < 3 µM | 10 to 25 µM | < 3 µM | < 3 µM | 10 to 25 µM | Cc1cc(C(=O)NC(Cc2ccccc2)C(=O)C(N)=O)n(-c2cccc(COCc3ccccc3)c2)n1 (stereo not shown) [Compound 438, N-(4-amino-3,4-dioxo-1-phenylbutan-2-yl)-1-(3-((benzyloxy)methyl)phenyl)-3-methyl-1H-pyrazole-5-carboxamide] |
| < 3 µM | < 10 µM | < 3 µM | < 3 µM | > 25 µM | Cc1cc(C(=O)NC(Cc2ccccc2)C(=O)C(N)=O)n(-c2ccc(Oc3ccccc3)cc2)n1 (stereo not shown) [Compound 439, N-(4-Amino-3,4-dioxo-1-phenylbutan-2-yl)-3-methyl-1-(4-phenoxyphenyl)-1H-pyrazole-5-carboxamide] |
| < 3 µM | < 10 µM | < 3 µM | < 3 µM | > 25 µM | Cc1cc(C(=O)NC(Cc2ccccc2)C(=O)C(N)=O)n(-c2ccc(OC3CCOCC3)cc2)n1 (stereo not shown) [Compound 440, N-(4-amino-3,4-dioxo-1-phenylbutan-2-yl)-3-methyl-1-(4-((tetrahydro-2H-pyran-4-yl)oxy)phenyl)-1H-pyrazole-5-carboxamide] |
| > 10 µM | > 25 µM | > 10 µM | > 10 µM | > 25 µM | CCN(CC)Cc1ccc(Oc2ccc(-n3nc(C)cc3C(=O)NC(Cc3ccccc3)C(=O)C(N)=O)cc2)cc1 (stereo not shown) [Compound 441, N-(4-amino-3,4-dioxo-1-phenylbutan-2-yl)-1-(4-(4-((diethylamino)methyl)phenoxy)phenyl)-3-methyl-1H-pyrazole-5-carboxamide hydrochloride] |
| < 3 µM | 10 to 25 µM | < 3 µM | < 3 µM | > 25 µM | Cc1cc(C(=O)NC(Cc2ccccc2)C(=O)C(N)=O)n(-c2ccc(CN3CCOCC3)cc2)n1 (stereo not shown) [Compound 442, N-(4-amino-3,4-dioxo-1-phenylbutan-2-yl)-3-methyl-1-(4-(morpholinomethyl)phenyl)-1H-pyrazole-5-carboxamide] |
| < 3 µM | < 10 µM | < 3 µM | < 3 µM | 10 to 25 µM | COCCOCCOc1ccc(-n2nc(C)cc2C(=O)NC(Cc2ccccc2)C(=O)C(N)=O)cc1 (stereo not shown) [Compound 443, N-(4-amino-3,4-dioxo-1-phenylbutan-2-yl)-1-(4-(2-(2-methoxyethoxy)ethoxy)phenyl)-3-methyl-1H-pyrazole-5-carboxamide] |
| < 3 µM | 10 to 25 µM | < 3 µM | < 3 µM | < 10 µM | COCCOCCOc1cccc(-n2nc(C)cc2C(=O)NC(Cc2ccccc2)C(=O)C(N)=O)c1 (stereo not shown) [Compound 444, N-(4-amino-3,4-dioxo-1-phenylbutan-2-yl)-1-(3-(2-(2-methoxyethoxy)ethoxy)phenyl)-3-methyl-1H-pyrazole-5-carboxamide] |
